The target in test [1] is GDP-bound NRAS wild-type protein (Homo sapiens, UniProt P01111). The test can be described thus: Binding to NRAS by surface plasmon resonance (SPR), Single Cycle Kinetics. To be noted: SPR; for NRAS/KRAS (ratio of KD value for NRAS to KD value for KRAS) / NRAS/KRAS (ratio of KD value with respect to NRAS to KD value with respect to KRAS): GDP-bound NRAS wild-type protein vs GDP-bound KRAS wild-type protein. (In SPR one partner is held on a chip, and binding of the other changes the refractive index at the surface.)
Sequence of GDP-bound NRAS wild-type protein (P01111 whole entry): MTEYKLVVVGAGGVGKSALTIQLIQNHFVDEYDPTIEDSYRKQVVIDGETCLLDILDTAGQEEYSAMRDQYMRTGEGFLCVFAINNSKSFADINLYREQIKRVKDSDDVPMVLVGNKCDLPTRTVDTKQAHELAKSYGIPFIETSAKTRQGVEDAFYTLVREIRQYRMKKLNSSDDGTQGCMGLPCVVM

For test [2], the target named is GDP-bound HRAS wild-type protein (Homo sapiens, UniProt P01112). Briefly: Binding to HRAS by surface plasmon resonance (SPR), Single Cycle Kinetics. To be noted: SPR; for HRAS/KRAS (ratio of KD value for HRAS to KD value for KRAS) / HRAS/KRAS (ratio of KD value with respect to HRAS to KD value with respect to KRAS): GDP-bound HRAS wild-type protein vs GDP-bound KRAS wild-type protein.
Sequence of GDP-bound HRAS wild-type protein (P01112 whole entry): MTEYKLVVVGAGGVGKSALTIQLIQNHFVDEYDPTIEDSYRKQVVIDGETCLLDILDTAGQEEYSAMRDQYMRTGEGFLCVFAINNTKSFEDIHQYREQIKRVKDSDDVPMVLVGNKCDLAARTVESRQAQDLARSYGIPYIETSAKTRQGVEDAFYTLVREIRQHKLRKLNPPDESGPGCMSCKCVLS

Test [3] concerns human lung cancer strain NCI-H441.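 Note: cell proliferation inhibition after four days measured by CellTiter-Glo.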

Where two headings read alike, the source gives them in different places.

In the case of `CCO[C@@H]1C[C@H]2C(=O)N(C)C3(CC(C)(C)C3)C(=O)N(C)[C@@H](C3CCCC3)C(=O)N(C)[C@H](C(=O)N(C)C)CC(=O)N(C)[C@H]3CCCCCc4ccc(cc4)C[C@@H](C(=O)N(C)CC(=O)N[C@@H](CCc4ccc(C(F)(F)F)c(OC)c4)C(=O)N2C1)N1CC/C=C\C[C@@H](C1=O)N(C)C(=O)CN(C)C(=O)[C@H]([C@@H](C)CC)NC3=O` [PP3091], the “NRAS/KRAS (ratio of KD value for NRAS to KD value for KRAS)” value in test [1] is “A (a compound having 10 or more and less than 20 is denoted as A)”. Also, in test [1] (KD(NRAS)/KD(KRAS)), the “ratio of the KD value with respect to GDP-bound NRAS wild-type protein to the KD value with respect to KRAS” value was “A (a compound having 10 or more and less than 20 is denoted as A)”. For the same compound, the “HRAS/KRAS (ratio of KD value for HRAS to KD value for KRAS)” value in test [2] is “B (a compound having 3 or more and less than 10 is denoted as B)”. For the same compound, the “ratio of the KD value with respect to GDP-bound HRAS wild-type protein to the KD value with respect to KRAS” value in test [2] (KD(HRAS)/KD(KRAS)) was “B (a compound having 3 or more and less than 10 is denoted as B)”. For the same compound, the IC50 in test [3] (read-out: NCI-H441 cell proliferation inhibitory activity, 50% proliferation inhibitory concentration (IC50 value), NCI-H441, four days, CellTiter-Glo) was 1.2 nM.

Turning to `CC[C@H](C)[C@@H]1NC(=O)[C@H](CC(C)C)N(C)C(=O)C[C@@H](C(=O)N2CCOCC2)N(C)C(=O)[C@H](C2CCCC2)N(C)C(=O)C2(CCCC2)NC(=O)[C@@H]2CCCN2C(=O)[C@H](CCc2ccc(C(F)(F)F)c(Cl)c2)NC(=O)CN(C)C(=O)[C@H](Cc2ccc(F)cc2)N2CCCC[C@@H](C2=O)N(C)C(=O)CN(C)C1=O` [PP0530], the “NRAS/KRAS (ratio of KD value with respect to NRAS to KD value with respect to KRAS)” value in test [1] was “C (A compound having a KD ratio of 0.1 or more and less than 3 is denoted as C)”. Also, in test [2], the “HRAS/KRAS (ratio of KD value with respect to HRAS to KD value with respect to KRAS)” value was “B (a compound having 3 or more and less than 10 is denoted as B)”. Besides, in test [3], the IC50 amounted to 7 nM.

With `CCC[C@H]1C(=O)N[C@@H]([C@@H](C)CC)C(=O)N(C)CC(=O)N(C)[C@H]2C/C=C\CCN(C2=O)[C@@H](Cc2ccc(C)cc2)C(=O)N(C)CC(=O)N[C@@H](CCc2cc(F)c(C(F)(F)F)c(F)c2)C(=O)N2C[C@H](OCC)C[C@H]2C(=O)NC2(CC(C)(C)C2)C(=O)N(C)[C@@H](C(CC)CC)C(=O)N(C)[C@H](C(=O)N(C)C)CC(=O)N1C` [PP2064], the “NRAS/KRAS (ratio of KD value for NRAS to KD value for KRAS)” value in test [1] was “A (a compound having 10 or more and less than 20 is denoted as A)”. Also, the “HRAS/KRAS (ratio of KD value for HRAS to KD value for KRAS)” value in test [2] is “A (a compound having 10 or more and less than 20 is denoted as A)”. In test [3], this compound had an IC50 of 13.6 nM.

As for `CC[C@H](C)[C@@H]1NC(=O)[C@@H](CC(C)C)N(C)C(=O)C[C@@H](C(=O)N(C)C)N(C)C(=O)[C@H](C2CCCC2)N(C)C(=O)C2(CCCC2)NC(=O)[C@@H]2CCCN2C(=O)[C@@H](CCc2ccc(C(F)(F)F)c(Cl)c2)NC(=O)CN(C)C(=O)[C@@H](Cc2ccc(C(F)(F)F)cc2)N2C/C=C\COC[C@@H](C2=O)N(C)C(=O)CN(C)C1=O` [PP0626], in test [1], the “NRAS/KRAS (ratio of KD value with respect to NRAS to KD value with respect to KRAS)” value was “C (A compound having a KD ratio of 0.1 or more and less than 3 is denoted as C)”. Further, the “HRAS/KRAS (ratio of KD value with respect to HRAS to KD value with respect to KRAS)” value in test [2] was “C (A compound having a KD ratio of 0.1 or more and less than 3 is denoted as C)”. Moreover, in test [3], the IC50 amounted to 158 nM.

As to `CC[C@H](C)[C@@H]1NC(=O)[C@@H](CC(C)C)N(C)C(=O)C[C@@H](C(=O)N(C)C)N(C)C(=O)[C@@H](C2CCCC2)N(C)C(=O)C2(CCCC2)NC(=O)[C@@H]2CCCN2C(=O)[C@H](CCc2ccc(C(F)(F)F)c(Cl)c2)NC(=O)CN(C)C(=O)[C@@H](Cc2ccc(C(F)(F)F)cc2)N2CC/C=C\CCN(CC2=O)C(=O)CN(C)C1=O` [PP0619], the “NRAS/KRAS (ratio of KD value with respect to NRAS to KD value with respect to KRAS)” value in test [1] is “C (A compound having a KD ratio of 0.1 or more and less than 3 is denoted as C)”. Besides, the “HRAS/KRAS (ratio of KD value with respect to HRAS to KD value with respect to KRAS)” value in test [2] is “C (A compound having a KD ratio of 0.1 or more and less than 3 is denoted as C)”. In addition, in test [3], the IC50 was 70.7 nM.
